Measurements published in PMC9848286, “Design, synthesis, and biological investigation of oxadiazolyl, thiadiazolyl, and pyrimidinyl linked antipyrine derivatives as potential non-acidic anti-inflammatory agents” (Journal of Enzyme Inhibition and Medicinal Chemistry, 2023).

Assays:
COX-1 = biological target: T1, COX-1 (Ovis aries, UniProt P05979); experiment: In vitro COX-1 inhibition, colorimetric screening assay kit; conditions: for HillSlope (best-fit value), COX-1 inhibition / LogIC50 (best-fit value), COX-1 inhibition: supplementary dose-response curve
T1 sequence (P05979 25-600): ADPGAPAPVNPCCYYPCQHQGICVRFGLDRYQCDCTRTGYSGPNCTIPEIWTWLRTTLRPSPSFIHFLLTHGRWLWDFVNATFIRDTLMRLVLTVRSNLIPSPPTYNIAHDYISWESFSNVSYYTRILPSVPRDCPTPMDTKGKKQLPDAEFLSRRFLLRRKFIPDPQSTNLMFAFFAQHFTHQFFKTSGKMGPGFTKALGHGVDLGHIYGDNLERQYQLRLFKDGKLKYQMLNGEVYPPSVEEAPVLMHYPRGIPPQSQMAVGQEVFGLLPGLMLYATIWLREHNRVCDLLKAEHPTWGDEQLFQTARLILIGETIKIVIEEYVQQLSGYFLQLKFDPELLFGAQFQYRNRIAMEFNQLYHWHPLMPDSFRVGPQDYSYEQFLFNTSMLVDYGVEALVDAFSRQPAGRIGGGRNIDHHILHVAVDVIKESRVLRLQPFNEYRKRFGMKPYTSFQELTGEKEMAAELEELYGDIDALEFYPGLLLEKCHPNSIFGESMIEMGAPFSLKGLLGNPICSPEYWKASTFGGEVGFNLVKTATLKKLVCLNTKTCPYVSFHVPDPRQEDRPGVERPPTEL
Procedure: (§5) This assay examined the inhibitory potency of the target structures towardboth COX isoforms via colorimetric screening assay kit (Cayman Chemical, MI, United States) based on the directions provided by the manufacturer. ELISA reader Thermo Scientific Multiskan® EX (Thermo scientific, United States) was used. […] Serial dilutions of CLX, as a reference standard, and tested compounds at concentrations of 1000, 300, 100, 30, 10, 3, 1, and 0.30 nM were used in the assay. IC50 of the tested compounds were determined using three different experiments. The selectivity (SI) of each ompound was measured using the COX-2/COX-1 ratio, which compares the IC50 of COX-2 and COX-1.

PGE2 = PGE2 level in paw tissue homogenate (ELISA); format: in vivo, rat; conditions: for PGE2 paw tissue level in comparison to the CLX group: P < 0.001; for PGE2 paw tissue level compared to the carrageenan group: rat paw 5 h after carrageenan, CLX 30, 4b 36, 4c 40 mg/kg i.p., P < 0.001, 0.05 and 0.001 respectively
Procedure: (§1) After overnight fasting, five groups of rats were randomly divided (n = 5). Group I (Control): injected only with the DMSO solution (1.2 ml/kg, i.p, 10% v/v of DMSO in sterile 0.9% saline solution). Group II (Carrageenan): injected with carrageenan [0.1 ml of a freshly prepared solution of carrageenan (1% w/v in sterile 0.9% saline solution) into the sub-plantar region of the right hind paw] and the DSMO solution. Group III (CLX): injected the standard drug CLX (30 mg/kg, i.p, 2.5% w/v in the DMSO solution). Group IV (4 b) injected the test drug 4 b (36 mg/kg, i.p, 2% w/v in the vehicle). Group V (4c): injected the test drug 4c (40 mg/kg, i.p, 2% w/v in the DMSO solution). The selected doses of 4 b and 4c were equimolar to 30 mg/kg CLX. One hour after treatments, edema caused by carrageenan injection as described above. A digital vernier caliper (Elora, Germany) was used to measure the thickness of the paw right prior to injection of carrageenan and thereafter at 1, 2, 3, 4, and 5 h.
(§2) After five hours from carrageenan injection, the rats were euthanized using […] with removal of the inflamed paws. Tissues of rat hind-paw’s pad were collected, and 5-mm pieces were homogenised in iced phosphate buffer saline (pH 7.4) on ice. Next, the prepared homogenate was centrifuged (10,000 g, 15 min, 4 °C) and the obtained supernatant was collected for additional analysis. The remaining tissue was fixed in formalin (10% v/v) for 24 h after which it was inserted in paraffin wax.
(§3) Levels of prostaglandin E2 (PGE2) and tumour necrosis factor-alpha (TNF-α) were measured in paw tissue homogenate using ELISA kits (Cusabio Technology LLC, TX, United States) and as per the guidelines provided by the manufacturer.

nitric oxide (NO) = experiment: NO content in paw tissue homogenate (colorimetric kit); format: in vivo, rat; conditions: for NO paw tissue content compared to CLX: P < 0.01
Procedure: as §1, §2
Contents of malondialdehyde (MDA) as a lipid peroxidation product, and nitric oxide (NO) as anitrosative product, were measured in paw tissue homogenate using colorimetric commercial kits (Biodiagnostic, Giza, Egypt) and as per the guidelines provided by the manufacturer.

[1] = tested on: carrageenan-injected rat paw tissue; experiment: Histopathological (H&E) inflammation scoring of carrageenan-inflamed paw tissue; format: in vivo; conditions: rat paw 5 h after carrageenan; CLX 30, 4b 36, 4c 40 mg/kg i.p.; significant (P < 0.05) only with CLX
Procedure: as §1, §2
(§4) Paraffinized tissue sections were dewaxed in xylene and mounted on slides then […] with hematoxylin-eosin (H&E) for histopathological evaluation of inflammation. Inflammation score from 0 to 5 was given as follows: 0,1,2,3,4, and 5 if there is no, mild, mild/moderate, moderate, moderate/severe, and severe inflammation, respectively.[48] […] Immunostained sections were scored as follows: 0,1, 2 and 3 if there is no, weak, moderate, and strong staining effect, respectively.[49]

TNF-α = TNF-α level in paw tissue homogenate (ELISA); format: in vivo, rat; conditions: for TNF-α lowering effect compared with CLX: P < 0.01; for TNF-α paw tissue level compared to the carrageenan group: rat paw 5 h after carrageenan, CLX 30, 4b 36, 4c 40 mg/kg i.p., P < 0.001
Procedure: as §1, §2, §3

COX-2 [2] = experiment: Immunohistochemistry of COX-2 expression in paw tissue; format: in vivo; conditions: rat paw 5 h after carrageenan; CLX 30, 4b 36, 4c 40 mg/kg i.p.
Procedure: After overnight fasting, five groups of rats were randomly divided (n = 5). Group I (Control): injected only with the DMSO solution (1.2 ml/kg, i.p, 10% v/v of DMSO in sterile 0.9% saline solution). Group II (Carrageenan): injected with carrageenan [0.1 ml of a freshly prepared solution of carrageenan (1% w/v in sterile 0.9% saline solution) into the sub-plantar region of the right hind paw] and the DSMO solution. […] One hour after treatments, edema caused by carrageenan injection as described above. A digital vernier caliper (Elora, Germany) was used to measure the thickness of the paw right prior to injection of carrageenan and thereafter at 1, 2, 3, 4, and 5 h.
After five hours from carrageenan injection, the rats were euthanized using surgical dislocation with removal of the inflamed paws. Tissues of rat hind-paw’s pad were collected, and 5-mm pieces were homogenised in iced phosphate buffer saline (pH 7.4) on ice. […]
The other set of sections were immunostained to examine expression levels of COX-2 and nuclear factor kappa B (NF-κB p65) using monoclonal antibodies (Thermo Fisher Scientific, MA, United States) and as per the guidelines provided by the manufacturer. Immunostained sections were scored as follows: 0,1, 2 and 3 if there is no, weak, moderate, and strong staining effect, respectively.[49]

COX-2 [3] = biological target: T2, COX-2 (Homo sapiens, UniProt P35354); experiment: In vitro COX-2 inhibition, colorimetric screening assay kit; conditions: for (SI) in vitro COX-2 selectivity index: COX-1 IC50/COX-2 IC50; for HillSlope (best-fit value), COX-2 inhibition / LogIC50 (best-fit value), COX-2 inhibition: supplementary dose-response curve
T2 sequence (P35354 18-604): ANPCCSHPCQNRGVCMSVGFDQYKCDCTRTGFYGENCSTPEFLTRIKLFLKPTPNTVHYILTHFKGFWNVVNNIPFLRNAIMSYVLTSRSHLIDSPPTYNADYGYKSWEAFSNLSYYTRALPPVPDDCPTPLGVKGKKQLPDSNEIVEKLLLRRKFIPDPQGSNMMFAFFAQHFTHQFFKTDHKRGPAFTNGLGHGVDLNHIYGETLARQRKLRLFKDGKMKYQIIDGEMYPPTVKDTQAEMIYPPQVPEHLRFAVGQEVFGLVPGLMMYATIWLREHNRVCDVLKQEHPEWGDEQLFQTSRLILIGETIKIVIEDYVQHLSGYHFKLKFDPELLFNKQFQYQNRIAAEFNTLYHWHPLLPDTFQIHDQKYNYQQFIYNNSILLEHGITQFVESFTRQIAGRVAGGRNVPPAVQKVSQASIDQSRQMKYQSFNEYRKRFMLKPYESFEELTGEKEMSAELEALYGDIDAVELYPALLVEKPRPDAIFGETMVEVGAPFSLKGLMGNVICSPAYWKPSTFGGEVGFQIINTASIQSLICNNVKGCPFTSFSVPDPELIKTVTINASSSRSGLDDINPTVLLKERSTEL
Procedure: as §5

[4] = tested on: carrageenan-induced paw edoema; experiment: Carrageenan-induced rat paw edoema, paw swelling; format: in vivo; conditions: rats, i.p. 1 h before carrageenan; CLX 30 mg/kg, 4b 36 mg/kg, 4c 40 mg/kg; 1-5 h
Text: The anti-inflammatory activity of the two selected compounds from the above screening, 4b and 4c was scrutinized in vivo using a paw edema model produced by carrageenan. Male Sprague Dawley rats (180–200 g) were obtained from Vacsera (Giza, Egypt) and maintained at rtunfettered access to food and water in a light-controlled space with a twelve-hour light/dark cycle. The research ethics committee at Mansoura University, Egypt examined and authorized the experiments (code number: 2022–78).
as §1
The paw edoema (E%) and edoema inhibition rate (I%) were calculated as follow: E%=B−A/A×100,
A: paw thickness (mm) just before carrageenan injection and B: paw thickness (mm) at different time intervals after carrageenan injection: I%=Ec−Et/Ec×100,
Ec: mean paw edoema of the carrageenan group and Et is the paw odema of the tested groups.

NF-κB = experiment: Immunohistochemistry of NF-κB p65 expression in paw tissue; format: in vivo; conditions: rat paw 5 h after carrageenan; CLX 30, 4b 36, 4c 40 mg/kg i.p.; significant (P < 0.05) only with CLX
Procedure: as §1, §2, §4

[5] = set-up: method as in PMID 29426771, PMID 11600237, PMID 33266208, PMID 19084415, PMID 35423143; conditions: Figure 1; cited from earlier work
COX-2 [6] = conditions: printed in Figure 1, comparator of an unlabelled compound; cited from earlier work

IC50 (COX-1) | HillSlope (best-fit value), COX-1 inhibition (COX-1) | LogIC50 (best-fit value), COX-1 inhibition (COX-1) | melting point | IC50 (COX-2 [3]) | (SI) in vitro COX-2 selectivity index (COX-2 [3]) | HillSlope (best-fit value), COX-2 inhibition (COX-2 [3]) | LogIC50 (best-fit value), COX-2 inhibition (COX-2 [3]) | SMILES | PGE2 paw tissue level in comparison to the CLX group (PGE2) | PGE2 paw tissue level compared to the carrageenan group (PGE2) | NO paw tissue content compared to CLX (nitric oxide (NO)) | semi-quantitative inflammation score (H&E) compared to the carrageenan group [1] | TNF-α lowering effect compared with CLX (TNF-α) | TNF-α paw tissue level compared to the carrageenan group (TNF-α) | COX-2 positive expression score compared to the carrageenan group (COX-2 [2]) | percentage of paw swelling compared to the carrageenan group [4] | NF-κB positive expression score compared to the carrageenan group (NF-κB) | further results
130 ± 2.3 nM | -0.4106 | 2.112 Log (nM) | 173 to 175 °C | 69.8 ± 2.14 nM | 1.86 | -0.3652 | 1.844 Log (nM) | Cc1c(NC(=O)CSc2nnc(-c3ccc(Br)cc3)o2)c(=O)n(-c2ccccc2)n1C [4c, 2-((5–(4-Bromophenyl)-1,3,4-oxadiazol-2-yl)thio)-N-(1,5-dimethyl-3-oxo-2-phenyl-2,3-dihydro-1H-pyrazol-4-yl)acetamide] | higher levels | reduced | lower | decreased | higher | decrease | decreased | marked lower percentages of paw swelling | decreased | PGE2 paw tissue level compared to the 4b group (PGE2; P < 0.05): lower; NO paw tissue content compared to 4 b (nitric oxide (NO); P < 0.05): lower
 |  |  |  |  |  |  |  | Cc1ccc(-c2cc(C(F)(F)F)nn2-c2ccc(S(N)(=O)=O)cc2)cc1 [Celecoxib, reference compound] |  | reduced |  | decreased |  | decrease |  | marked lower percentages of paw swelling | decreased | 
 |  |  |  |  |  |  |  | CC(=O)Nc1nnc(SCC(=O)Nc2c(C)n(C)n(-c3ccccc3)c2=O)s1 [Compound A] |  |  |  |  |  |  |  |  |  | more active than diclofenac Na as antiinflammatory [5]: 46%
 |  |  |  |  |  |  |  | Cc1cnc(NC(=O)C2=C(O)c3ccccc3S(=O)(=O)N2C)s1 [Meloxicam] |  |  |  |  |  |  |  |  |  | % inhibition against COX-2 (COX-2 [6]): 44.95%
238.5 ± 2.08 nM | -0.4124 | 2.378 Log (nM) | 190 to 192 °C | 53.8 ± 2.05 nM | 4.44 | -0.2859 | 1.730 Log (nM) | Cc1c(NC(=O)CSc2nnc(-c3ccc(Cl)cc3)o2)c(=O)n(-c2ccccc2)n1C [4b, 2-((5–(4-Chlorophenyl)-1,3,4-oxadiazol-2-yl)thio)-N-(1,5-dimethyl-3-oxo-2-phenyl-2,3-dihydro-1H-pyrazol-4-yl)acetamide] | higher levels | reduced | higher | decreased | higher | decrease | decreased | marked lower percentages of paw swelling | decreased | 
